Data taken from patent US5498710A, “Alkyl ether analogues of benzoporphyrin derivatives” (Health Research, Inc., priority 1994, dated 1996).
Entries after “also recorded” stand apart in the source; their conditions may differ. Values belong to the compound of their own block, whether it stands above or below them.

What was measured:
SMT-F tumor [1] = assay: In vivo antitumor (photodynamic) activity, SMT-F tumors in DBA/2 mice; parameters: species or system DBA/2 Ha-DD mouse; conditions: for Tumor response (nonpalpable tumor), 1-2 d / Tumor response (nonpalpable tumor), 7 d / Tumor response (nonpalpable tumor), 30 d: 1.0 mg/kg i.v., light 3 h after injection; for Tumor response (nonpalpable tumor), 1-2 d: day 1-2; for Tumor response (nonpalpable tumor), 7 d: day 7; for Tumor response (nonpalpable tumor), 30 d: day 30; for antitumor / photosensitizing activity: 1.0 mg/kg, light 3 h post i.v. injection where stated; for in vivo photosensitizing efficacy / antitumor activity compared with BPD: mice, compared with BPD (mixture of 21 and 22); for tumorcidal activity: similar doses and treatment conditions
Procedure: Tumor Response and Foot Response Experiments: For tumor response experiments (see Table 3), a 1mm^3 piece of SMT-F tumor from a donor DBA/2 Ha-DD mouse was implanted subcutaneously with a trocar into the axilla of a 5-7 week old female DBA/2 Ha-DD mouse. When the tumor had grown to about 4mm diameter, mice were injected intravenously (i.v.) with photosensitizers at various doses. At various time after injection, mice were restrained in Plexiglas® holders and each tumor was illuminated with 135 J/cm^2 light from a dye laser 171 (spectra physics). The light dose rate was 75 mW/cm^2 as measured with a PTR Optics […]. The percentage of short term control (non-palpable tumors) was recorded daily. For our study 6 mice/group were used.
(§1) In vivo Biological Activity: The in vivo photosensitizing ability of all the sensitizers was compared with that of commercial BPD in DBA/2 mice bearing subcutaneously implanted SMT-F tumors, a method previously described by Dougherty et al. All photosensitizers, including commercial BPD (mixture of 21 and 22) were first dissolved in a minimum quantity of Tween 80 and then diluted with 0.9% saline, to a final concentration of 1% Tween 80.
(§2) It can be seen from Table 3 that commercial BPD was quite effective at a dose of 5.0 mg/kg, 3 h post i.v. injection (4 out of six mice were tumor free at day 30). […] However, replacement of the vinyl with a 1-hexyloxyethyl group induced a remarkable difference in photosensitizing activity.

SMT-F tumor [2] = assay: as above; parameters: species or system DBA/2 Ha-DD mouse; conditions: 5.0 mg/kg i.v., light 24 h after injection
[3] = Electronic absorption, red absorption maximum; type: physicochemical; conditions: for red shift in the absorption spectra: electron-withdrawing groups on macrocycle; for strong absorption in the red: formyl-BPDs
Procedure: M.p.s were measured on a Thomas/Bristoline microscopic hot stage apparatus and were uncorrected. Silica gel 60 (70-230 and 230-400 mesh, Merck) or neutral alumina (Merck; usually Brockmann Grade III, i. e., deactivated with 6% water) were used for column chromatography. Preparative thin layer chromatography was carried out on 20×20 cm glass plates coated with Merck G 254 silica gel (1 mm thick). Analytical thin layer chromatography (TLC) was performed using merck 60 F254 silica gel (precoated sheets, 0.2 mm thick). Reactions were monitored by TLC and spectrophotometry and were carried out under nitrogen and in the dark. ^1 HNMR spectra were obtained in deuteriochloroform solution at 300 MHz using a General Electric QE300 spectrometer; chemical shifts are expressed in ppm relative to chloroform (7.258 ppm). Elemental analyses were performed at the Midwest Microlab, Ltd., Indiana, USA. Unless stated otherwise, electronic absorption spectra were measured in dichloromethane solution using a Hewlett-Packard 8450A spectrophotometer. Mass spectra were obtained at the Mass Spectrometry Facility, University of California, San Francisco and at the Department of Biophysics, Roswell Park Cancer Institute, Buffalo.

[4] = Solubility of photosensitizers; type: physicochemical; conditions: Tween 80, then 0.9% saline (1% Tween 80)
Text: as §1, §2

Compound: 3-(1-Hexyloxyethyl)benzoporphyrin Derivative [Compound 35]
Tumor response (nonpalpable tumor), 1-2 d (SMT-F tumor [1]): 6/6 | Tumor response (nonpalpable tumor), 7 d (SMT-F tumor [1]): 6/6 | Tumor response (nonpalpable tumor), 30 d (SMT-F tumor [1]): 2/6 | antitumor / photosensitizing activity (SMT-F tumor [1]): active; also recorded: good antitumor activity | in vivo photosensitizing efficacy / antitumor activity compared with BPD (SMT-F tumor [1]): significantly more active than the industrially prepared benzoporphyrin derivative; also recorded: better photosensitizing efficacy than benzoporphyrin derivative monocarboxylic acid; also recorded: better anti-tumor activity than BPD-MA

Compound: 3-(1-Hexyloxyethyl)benzoporphyrin Derivative [Compound 45]
Tumor response (nonpalpable tumor), 1-2 d (SMT-F tumor [1]): 6/6 | Tumor response (nonpalpable tumor), 7 d (SMT-F tumor [1]): 4/6 | Tumor response (nonpalpable tumor), 30 d (SMT-F tumor [1]): 0/6 | antitumor / photosensitizing activity (SMT-F tumor [1]): active | in vivo photosensitizing efficacy / antitumor activity compared with BPD (SMT-F tumor [1]): significantly more active than the industrially prepared benzoporphyrin derivative; also recorded: better photosensitizing efficacy than benzoporphyrin derivative monocarboxylic acid; also recorded: better anti-tumor activity than BPD-MA | Tumor response (nonpalpable tumor), 1-2 d (SMT-F tumor [2]; day 1-2): 6/6 | Tumor response (nonpalpable tumor), 7 d (SMT-F tumor [2]; day 7): 6/6 | Tumor response (nonpalpable tumor), 30 d (SMT-F tumor [2]; day 30): 0/6

absorption maximum wavelength ([3]; maximum red absorption peak, Table 3): 676 nm
Compound: CCCCCCOC(C)C1=C(C)c2cc3[nH]c(cc4nc(cc5[nH]c(cc1n2)c(C)c5CCC(=O)OC)C(CCC(=O)OC)=C4C)C1(C)C3=CC=C(C(=O)OC)C1C(=O)OC (mixture of isomers) [Compound 27, 8-(1-Hexyloxyethyl)benzoporphyrin Derivative]
Tumor response (nonpalpable tumor), 1-2 d (SMT-F tumor [1]): 6/6 | Tumor response (nonpalpable tumor), 7 d (SMT-F tumor [1]): 4/6 | Tumor response (nonpalpable tumor), 30 d (SMT-F tumor [1]): 1/6 | antitumor / photosensitizing activity (SMT-F tumor [1]): active; also recorded: good antitumor activity | in vivo photosensitizing efficacy / antitumor activity compared with BPD (SMT-F tumor [1]): significantly more active than the industrially prepared benzoporphyrin derivative; also recorded: better photosensitizing efficacy than benzoporphyrin derivative monocarboxylic acid; also recorded: better anti-tumor activity than BPD-MA

Compound: COC(=O)CCC1=C(C)c2cc3[nH]c(cc4nc(cc5[nH]c(cc1n2)c(CCC(=O)OC)c5C)C(C=CC(C)C1=C(C)c2cc5[nH]c(cc6nc(cc7[nH]c(cc1n2)c(C)c7CCC(=O)OC)C(CCC(=O)OC)=C6C)C1(C)C5=CC=C(C(=O)OC)C1C(=O)OC)=C4C)C1=CC=C(C(=O)OC)C(C(=O)OC)C13C (mixture of isomers) [Compound 46, Bis-Benzoporphyrin]
tumorcidal activity (SMT-F tumor [1]): did not show any significant tumorcidal activity

Compound: C=CC1=C(C)c2cc3[nH]c(cc4nc(cc5[nH]c(cc1n2)c(C)c5CCC(=O)OC)C(CCC(=O)OC)=C4C)C1(C)C3=CC=C(C(=O)OC)C1C(=O)OC (stereo not drawn) [Compound 20, 8-vinylbenzoporphyrin Derivative]
antitumor / photosensitizing activity (SMT-F tumor [1]): activity similar to BPD

Compound: COC(=O)CCC1=C(C)c2cc3[nH]c(cc4nc(cc5[nH]c(cc1n2)c(CCC(=O)OC)c5C)C(C(C)=O)=C4C)C1=CC=C(C(=O)OC)C(C(=O)OC)C13C (stereo not drawn) [Compound 23, 8-Acetylbenzoporphyrin Derivative]
antitumor / photosensitizing activity (SMT-F tumor [1]): inactive | in vivo photosensitizing efficacy / antitumor activity compared with BPD (SMT-F tumor [1]): failed to improve their photosensitizing efficacy | tumorcidal activity (SMT-F tumor [1]): did not show any significant tumorcidal activity | red shift in the absorption spectra [3]: significant red shift in the absorption spectra | ease of dissolution [4]: difficult to dissolve

Compound: CCC1=C(C)c2cc3[nH]c(cc4nc(cc5[nH]c(cc1n2)c(C)c5CCC(=O)OC)C(CCC(=O)OC)=C4C)C1(C)C3=CC=C(C(=O)OC)C1C(=O)OC (stereo not drawn) [Compound 25, 8-Ethylbenzoporphyrin Derivative]
tumorcidal activity (SMT-F tumor [1]): did not show any significant tumorcidal activity

strong absorption in the red [3]: 696 nm
Compound: COC(=O)CCC1=C(C)c2cc3[nH]c(cc4nc(cc5[nH]c(cc1n2)c(CCC(=O)OC)c5C)C(C=O)=C4C)C1=CC=C(C(=O)OC)C(C(=O)OC)C13C (stereo not drawn) [Compound 26, 8-Formylbenzoporphyrin Derivative]
tumorcidal activity (SMT-F tumor [1]): did not show any significant tumorcidal activity

Compound: C=CC1=C(C)c2cc3[nH]c(cc4nc(cc5[nH]c(cc1n2)C1(C)C5=CC=C(C(=O)OC)C1C(=O)OC)C(C)=C4CCC(=O)OC)c(CCC(=O)OC)c3C (stereo not drawn) [Compound 28, 3-Vinylbenzoporphyrin Derivative]
antitumor / photosensitizing activity (SMT-F tumor [1]): activity similar to BPD

Compound: COC(=O)CCC1=C(C)c2cc3[nH]c(cc4nc(cc5[nH]c(cc1n2)c(CCC(=O)OC)c5C)C(C)=C4C(C)=O)C1(C)C3=CC=C(C(=O)OC)C1C(=O)OC (stereo not drawn) [Compound 31, 3 -Acetylbenzoporphyrin Derivative]
antitumor / photosensitizing activity (SMT-F tumor [1]): inactive | in vivo photosensitizing efficacy / antitumor activity compared with BPD (SMT-F tumor [1]): failed to improve their photosensitizing efficacy | tumorcidal activity (SMT-F tumor [1]): did not show any significant tumorcidal activity | red shift in the absorption spectra [3]: significant red shift in the absorption spectra | ease of dissolution [4]: difficult to dissolve

Compound: CCC1=C(C)c2cc3[nH]c(cc4nc(cc5[nH]c(cc1n2)C1(C)C5=CC=C(C(=O)OC)C1C(=O)OC)C(C)=C4CCC(=O)OC)c(CCC(=O)OC)c3C (stereo not drawn) [Compound 33, 2-Ethylbenzoporphyrin Derivative]
tumorcidal activity (SMT-F tumor [1]): did not show any significant tumorcidal activity

strong absorption in the red [3]: 696 nm
Compound: COC(=O)CCC1=C(C)c2cc3[nH]c(cc4nc(cc5[nH]c(cc1n2)c(CCC(=O)OC)c5C)C(C)=C4C=O)C1(C)C3=CC=C(C(=O)OC)C1C(=O)OC (stereo not drawn) [Compound 34, 3-Formylbenzoporphyrin Derivative]
tumorcidal activity (SMT-F tumor [1]): did not show any significant tumorcidal activity

Compound: C=CC1=C(C)c2cc3[nH]c(cc4nc(cc5[nH]c(cc1n2)c(C)c5CCC(=O)OC)C(CCC(=O)OC)=C4C)C1(C)C3=CC=C(C(=O)OC)C1C(=O)OC (stereo not drawn) [Compound 36, 8-Vinylbenzoporphyrin Derivative]
antitumor / photosensitizing activity (SMT-F tumor [1]): activity similar to BPD

Compound: COC(=O)CCC1=C(C)c2cc3[nH]c(cc4nc(cc5[nH]c(cc1n2)c(CCC(=O)OC)c5C)C(C(C)=O)=C4C)C1=CC=C(C(=O)OC)C(C(=O)OC)C13C (stereo not drawn) [Compound 37, 8-Acetylbenzoporphyrin Derivative]
antitumor / photosensitizing activity (SMT-F tumor [1]): inactive | in vivo photosensitizing efficacy / antitumor activity compared with BPD (SMT-F tumor [1]): failed to improve their photosensitizing efficacy | red shift in the absorption spectra [3]: significant red shift in the absorption spectra | ease of dissolution [4]: difficult to dissolve

Compound: C=CC1=C(C)c2cc3[nH]c(cc4nc(cc5[nH]c(cc1n2)C1(C)C5=CC=C(C(=O)OC)C1C(=O)OC)C(C)=C4CCC(=O)OC)c(CCC(=O)OC)c3C (stereo not drawn) [Compound 41, 3-Vinyl-BPD]
antitumor / photosensitizing activity (SMT-F tumor [1]): activity similar to BPD

Compound: COC(=O)CCC1=C(C)c2cc3[nH]c(cc4nc(cc5[nH]c(cc1n2)c(CCC(=O)OC)c5C)C(C)=C4C(C)=O)C1(C)C3=CC=C(C(=O)OC)C1C(=O)OC (stereo not drawn) [Compound 42, 3 -Acetylbenzoporphyrin Derivative]
antitumor / photosensitizing activity (SMT-F tumor [1]): inactive | in vivo photosensitizing efficacy / antitumor activity compared with BPD (SMT-F tumor [1]): failed to improve their photosensitizing efficacy | red shift in the absorption spectra [3]: significant red shift in the absorption spectra | ease of dissolution [4]: difficult to dissolve
